Measurements as given in article PMC11181478, “SARS-CoV-2 Main Protease Inhibitors That Leverage Unique Interactions with the Solvent Exposed S3 Site of the Enzyme” (ACS Medicinal Chemistry Letters, 2024).

System: SARS-CoV-2 delta variant (hCoV-19/USA/MD-HP05647/2021)
Assay: Live virus antiviral test in A549-hACE2 cells (RT-qPCR)
Type: cell-based
Details: Severe acute respiratory syndrome coronavirus 2, 72 h

CC1(C)[C@@H]2[C@@H](C(=O)N[C@H](C=O)C[C@@H]3CCNC3=O)N(C(=O)[C@H](CC3CCCCC3)NC(=O)OCc3ccccc3)C[C@@H]21 [MPI100]
EC50: 3.4 µM
